Experimental findings from patent US20240208992A1, “MACROCYCLES AS CFTR MODULATORS” (Idorsia Pharmaceuticals Ltd, priority 2021, published 2024) are described below.

The target of the assay is human F508del-CFTR (Homo sapiens, UniProt P13569, DEL508-508). Description: F508del-CFTR cell surface expression (corrector activity), DiscoveRx ß-galactosidase complementation chemiluminescence assay in recombinant U2OS cell line.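 As to all read-outs here: U2OS cells co-expressing ProLink-tagged F508del-CFTR and a membrane-anchored enzyme acceptor, where more surface CFTR restores β-galactosidase activity measured by chemiluminescence.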 Conditions: U2OS cells, 16h compound incubation; for EC50: EC50, F508del-CFTR cell surface expression, geomean of several measurements; for Emax: U2OS, in relation to the Emax of the corrector lumacaftor (=100%), arithmetic mean.
Sequence of human F508del-CFTR (P13569 with tags, fused parts or gaps DEL508-508): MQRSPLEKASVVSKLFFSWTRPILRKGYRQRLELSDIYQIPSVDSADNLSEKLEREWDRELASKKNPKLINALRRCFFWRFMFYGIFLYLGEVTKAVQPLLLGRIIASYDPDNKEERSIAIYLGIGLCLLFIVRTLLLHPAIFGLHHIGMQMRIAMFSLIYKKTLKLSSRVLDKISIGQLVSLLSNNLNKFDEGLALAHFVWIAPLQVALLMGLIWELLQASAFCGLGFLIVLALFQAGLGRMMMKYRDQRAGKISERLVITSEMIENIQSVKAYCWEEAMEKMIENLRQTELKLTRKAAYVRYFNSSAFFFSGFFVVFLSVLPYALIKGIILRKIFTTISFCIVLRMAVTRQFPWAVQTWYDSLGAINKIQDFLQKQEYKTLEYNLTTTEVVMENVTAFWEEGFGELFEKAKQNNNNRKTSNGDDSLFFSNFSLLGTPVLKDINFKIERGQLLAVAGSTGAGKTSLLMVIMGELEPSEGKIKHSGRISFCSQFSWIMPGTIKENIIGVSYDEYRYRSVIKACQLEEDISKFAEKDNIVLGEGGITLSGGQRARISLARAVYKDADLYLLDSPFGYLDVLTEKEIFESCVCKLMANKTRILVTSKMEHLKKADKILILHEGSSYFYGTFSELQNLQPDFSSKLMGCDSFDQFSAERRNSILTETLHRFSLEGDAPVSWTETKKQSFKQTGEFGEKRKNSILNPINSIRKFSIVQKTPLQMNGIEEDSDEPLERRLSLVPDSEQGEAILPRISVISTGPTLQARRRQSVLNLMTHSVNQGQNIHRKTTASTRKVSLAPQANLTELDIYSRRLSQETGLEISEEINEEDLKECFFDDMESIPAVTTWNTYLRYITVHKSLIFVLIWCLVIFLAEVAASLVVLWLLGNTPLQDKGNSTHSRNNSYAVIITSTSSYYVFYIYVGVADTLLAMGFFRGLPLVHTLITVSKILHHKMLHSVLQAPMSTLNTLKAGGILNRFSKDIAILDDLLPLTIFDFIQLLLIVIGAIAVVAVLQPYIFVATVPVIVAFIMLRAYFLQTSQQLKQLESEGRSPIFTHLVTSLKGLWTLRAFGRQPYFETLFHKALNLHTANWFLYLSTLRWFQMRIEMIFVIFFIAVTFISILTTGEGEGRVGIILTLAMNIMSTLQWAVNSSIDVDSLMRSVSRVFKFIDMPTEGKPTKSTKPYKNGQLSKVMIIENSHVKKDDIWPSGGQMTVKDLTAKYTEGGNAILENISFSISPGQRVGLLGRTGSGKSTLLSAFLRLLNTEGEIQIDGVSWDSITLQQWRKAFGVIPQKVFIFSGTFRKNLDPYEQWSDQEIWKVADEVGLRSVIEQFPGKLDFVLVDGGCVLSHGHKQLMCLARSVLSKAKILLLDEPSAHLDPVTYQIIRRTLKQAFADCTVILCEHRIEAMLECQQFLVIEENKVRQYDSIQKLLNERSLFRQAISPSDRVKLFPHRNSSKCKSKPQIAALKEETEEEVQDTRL

The term EC50 denotes the concentration giving half of the maximal effect. What is called Emax is the maximal effect, on the per cent scale that the assay sets. Regarding `CCOCC[C@@H]1C(=O)N[C@H](Cc2ccccc2)COc2cc(C)nc(OC)c2C(=O)N[C@H](C(=O)NCCc2cc(OC)no2)CC(=O)N(C)[C@@H](CC(C)C)C(=O)N1C` [Example 877, (3R,6R,9S,13S)-3-benzyl-6-(2-ethoxyethyl)-9-isobutyl-16-methoxy-N-(2-(3-methoxyisoxazol-5-yl)ethyl)-7,10,18-trimethyl-5,8,11,15-tetraoxo-2,3,4,5,6,7,8,9,10,11,12,13,14,15-tetradecahydropyrido[3,4-p][1]oxa[4,7,10,14]tetraazacycloheptadecine-13-carboxamide], the EC50 was 186 nM and the maximum response (Emax) came to 361%.

For the compound `COc1cc(CCNC(=O)[C@@H]2CC(=O)N(C)[C@@H](CC(C)C)C(=O)N(C)[C@H](CC(C)(C)C)C(=O)N[C@H](Cc3ccccc3)COc3cc(C)nc(OC)c3C(=O)N2)on1` [Example 878, (3R,6R,9S,13S)-3-benzyl-9-isobutyl-16-methoxy-N-(2-(3-methoxyisoxazol-5-yl)ethyl)-7,10,18-trimethyl-6-neopentyl-5,8,11,15-tetraoxo-2,3,4,5,6,7,8,9,10,11,12,13,14,15-tetradecahydropyrido[3,4-p][1]oxa[4,7,10,14]tetraazacycloheptadecine-13-carboxamide], the 50% effective concentration (EC50) came to 27 nM and the maximum response (Emax) was determined as 336%.

Regarding `COc1cc(C[C@@H]2C(=O)N[C@H](Cc3ccccc3)COc3ccc4ncc(F)cc4c3C(=O)N[C@H](C(=O)NCCc3noc(C4CC4)n3)CC(=O)N(C)[C@@H](CC(C)C)C(=O)N2C)on1` [Example 879, (3S,7S,10R,13R)-13-benzyl-N-(2-(5-cyclopropyl-1,2,4-oxadiazol-3-yl)ethyl)-20-fluoro-7-isobutyl-10-((3-methoxyisoxazol-5-yl)methyl)-6,9-dimethyl-1,5,8,11-tetraoxo-1,2,3,4,5,6,7,8,9,10,11,12,13,14-tetradecahydro-[1]oxa[4,7,10,14]tetraazacycloheptadecino[16,17-f]quinoline-3-carboxamide], the EC50 is 63 nM and the maximum response (Emax) was 360%.

With `COc1cc(CCNC(=O)[C@@H]2CC(=O)N(C)[C@@H](CC(C)C)C(=O)N(C)[C@H](Cc3cc(OC)no3)C(=O)N[C@H](Cc3ccccc3)COc3ccc4ncc(F)cc4c3C(=O)N2)on1` [Example 880, (3S,7S,10R,13R)-13-benzyl-20-fluoro-7-isobutyl-N-(2-(3-methoxyisoxazol-5-yl)ethyl)-10-((3-methoxyisoxazol-5-yl)methyl)-6,9-dimethyl-1,5,8,11-tetraoxo-1,2,3,4,5,6,7,8,9,10,11,12,13,14-tetradecahydro-[1]oxa[4,7,10,14]tetraazacycloheptadecino[16,17-f]quinoline-3-carboxamide], the EC50 turned out to be 59 nM and the Emax stood at 359%.

For the compound `COc1nccc2c1C(=O)N[C@H](C(=O)NCCc1noc(C3CC3)n1)CC(=O)N(C)[C@@H](CC(C)C)C(=O)N(C)[C@H](CCc1nc(C(C)(C)C)no1)C(=O)N[C@H](Cc1ccccc1)CO2` [Example 881, (3R,6R,9S,13S)-3-benzyl-6-(2-(3-(tert-butyl)-1,2,4-oxadiazol-5-yl)ethyl)-N-(2-(5-cyclopropyl-1,2,4-oxadiazol-3-yl)ethyl)-9-isobutyl-16-methoxy-7,10-dimethyl-5,8,11,15-tetraoxo-2,3,4,5,6,7,8,9,10,11,12,13,14,15-tetradecahydropyrido[3,4-p][1]oxa[4,7,10,14]tetraazacycloheptadecine-13-carboxamide], the EC50 was found to be 309 nM and the Emax was 337%.

`COc1nccc2c1C(=O)N[C@H](C(=O)NCCc1noc(C3CC3)n1)CC(=O)N(C)[C@@H](CC(C)C)C(=O)N(C)[C@H](Cn1cc(-c3ccccc3)nn1)C(=O)N[C@H](Cc1ccccc1)CO2` [Example 882, (3R,6R,9S,13S)-3-benzyl-N-(2-(5-cyclopropyl-1,2,4-oxadiazol-3-yl)ethyl)-9-isobutyl-16-methoxy-7,10-dimethyl-5,8,11,15-tetraoxo-6-((4-phenyl-1H-1,2,3-triazol-1-yl)methyl)-2,3,4,5,6,7,8,9,10,11,12,13,14,15-tetradecahydropyrido[3,4-p][1]oxa[4,7,10,14]tetraazacycloheptadecine-13-carboxamide]: the half-maximal effective concentration (EC50) came out at 473 nM and the Emax worked out at 367%.

For the compound `COc1nccc2c1C(=O)N[C@H](C(=O)NCCc1noc(C3CC3)n1)CC(=O)N(C)[C@@H](CC(C)C)C(=O)N(C)[C@H](CCc1nc(C3CCCC3)no1)C(=O)N[C@H](Cc1ccccc1)CO2` [Example 883, (3R,6R,9S,13S)-3-benzyl-6-(2-(3-cyclopentyl-1,2,4-oxadiazol-5-yl)ethyl)-N-(2-(5-cyclopropyl-1,2,4-oxadiazol-3-yl)ethyl)-9-isobutyl-16-methoxy-7,10-dimethyl-5,8,11,15-tetraoxo-2,3,4,5,6,7,8,9,10,11,12,13,14,15-tetradecahydropyrido[3,4-p][1]oxa[4,7,10,14]tetraazacycloheptadecine-13-carboxamide], the half-maximal effective concentration (EC50) was 111 nM and the Emax was determined as 344%.

Turning to `COc1cc(CCNC(=O)[C@@H]2CC(=O)N(C)[C@@H](CC(C)C)C(=O)N(C)[C@H](CCc3nc(C4CCCC4)no3)C(=O)N[C@H](Cc3ccccc3)COc3ccnc(OC)c3C(=O)N2)on1` [Example 884, (3R,6R,9S,13S)-3-benzyl-6-(2-(3-cyclopentyl-1,2,4-oxadiazol-5-yl)ethyl)-9-isobutyl-16-methoxy-N-(2-(3-methoxyisoxazol-5-yl)ethyl)-7,10-dimethyl-5,8,11,15-tetraoxo-2,3,4,5,6,7,8,9,10,11,12,13,14,15-tetradecahydropyrido[3,4-p][1]oxa[4,7,10,14]tetraazacycloheptadecine-13-carboxamide], the 50% effective concentration (EC50) was determined as 96 nM and the Emax came out at 385%.

Consider `CC(C)C[C@H]1C(=O)N(C)[C@H](Cn2cc(-c3ccc(F)cn3)nn2)C(=O)N[C@H](Cc2ccccc2)COc2cnc3ccc(F)cc3c2C(=O)N[C@H](C(=O)NCCc2noc(C3CC3)n2)CC(=O)N1C` [Example 885, (3S,7S,10R,13R)-13-benzyl-N-(2-(5-cyclopropyl-1,2,4-oxadiazol-3-yl)ethyl)-20-fluoro-10-((4-(5-fluoropyridin-2-yl)-1H-1,2,3-triazol-1-yl)methyl)-7-isobutyl-6,9-dimethyl-1,5,8,11-tetraoxo-1,2,3,4,5,6,7,8,9,10,11,12,13,14-tetradecahydro-[1]oxa[4,7,10,14]tetraazacycloheptadecino[17,16-c]quinoline-3-carboxamide], for which the EC50 is 78 nM and the Emax was 328%.

Consider `CC(C)C[C@H]1C(=O)N(C)[C@H](Cc2cc(C(C)(C)C)no2)C(=O)N[C@H](Cc2ccccc2)COc2cnc3ccc(F)cc3c2C(=O)N[C@H](C(=O)NCCc2noc(C3CC3)n2)CC(=O)N1C` [Example 886, (3S,7S,10R,13R)-13-benzyl-10-((3-(tert-butyl)isoxazol-5-yl)methyl)-N-(2-(5-cyclopropyl-1,2,4-oxadiazol-3-yl)ethyl)-20-fluoro-7-isobutyl-6,9-dimethyl-1,5,8,11-tetraoxo-1,2,3,4,5,6,7,8,9,10,11,12,13,14-tetradecahydro-[1]oxa[4,7,10,14]tetraazacycloheptadecino[17,16-c]quinoline-3-carboxamide], for which the half-maximal effective concentration (EC50) came to 15 nM and the Emax was 359%.
